Results taken from the OPERA property sets (Mansouri et al. 2018).

SMILES | melting point [°C] | boiling point [°C] | log10 vapour pressure (mmHg) | ready biodegradability | log10 Koc (L/kg) | log10 Koa | log10 Henry constant (atm·m³/mol)
O=C(O)Cc1cc(O)ccc1O | 153 | – | – | – | – | – | –
Cc1ccc(N(C)C)cc1 | – | 211 | -0.75 | – | – | – | –
CC(=O)c1ccc(C)cc1O | 21 | 245 | – | – | – | – | –
C=CSC=C | 20 | 84 | – | – | – | – | –
Oc1ccc(-c2ccccc2)cc1Cl | 77 | – | – | – | – | – | –
CCCCCCCCCCCCCCCCCCOP1OCC2(CO1)COP(OCCCCCCCCCCCCCCCCCC)OC2 (stereo not given) | – | – | – | readily biodegradable | – | – | –
O=C(Cc1c(Cl)ccc(Cl)c1Cl)[O][Na] | – | – | – | – | 1.72 | – | –
C[C@H](N)Cc1ccccc1 | – | 203 | – | – | – | – | –
C[C@]12CC[C@@H]3c4ccc(OC(=O)c5ccccc5)cc4CC[C@H]3[C@@H]1CC[C@@H]2O | 196 | – | – | – | – | – | –
S=C1NCCS1 | 106 | – | – | – | – | – | –
CCCCCCCCCCCCCCCCCCO | 59.5 | – | -5.57 | readily biodegradable | – | 10.9 | –
CC(C)(Cl)CCCl | – | 147 | – | – | – | – | –
O=C1C(Cl)=C(Cl)C(=O)N1c1ccc(F)cc1 | 241 | – | – | – | – | – | –
NC(=O)NCc1ccccc1 | 148 | – | – | – | – | – | –
C=CC(F)(F)C(F)(F)C(F)(F)C(F)(F)C(F)(F)C(F)(F)C(F)(F)C(F)(F)F | – | 150 | – | – | – | – | –
O=C(CCl)c1cccc([N+](=O)[O-])c1 | – | – | -5.06 | – | – | – | –
Cc1ccc(C(=O)c2ccc(C)cc2)cc1 | 96.5 | 334 | – | – | – | – | –
CC1CCC(C)CC1 (stereo not given) | -87 | 120 | 1.25 | – | – | – | –
CCCCCCCCCCCCCCCCCC(=O)OC1CCCCC1 | 44 | – | – | – | – | – | –
CCCCCCCCCCCCCCc1ccccc1 | 16 | 359 | -4.62 | – | – | – | –
CN1CC1 | – | 27.5 | – | – | – | – | –
C=C1C(=O)O[C@@H]2C[C@@H](C)[C@@H]3C=CC(=O)[C@@]3(C)[C@@H](O)[C@H]12 | 168 | – | – | – | – | – | –
CCCCCC(=O)OCCC(C)C | – | 226 | – | – | – | – | –

SMILES | melting point [°C] | boiling point [°C] | log10 vapour pressure (mmHg) | ready biodegradability | log10 Koc (L/kg) | log10 Koa | log10 Henry constant (atm·m³/mol)
C=CC(=O)OCCOCC | -47 | 174 | – | – | – | – | –
CC(CO)CC(F)(F)F (stereo not given) | – | 132 | – | – | – | – | –
CC1(C)CC(=O)CC(C)(C)N1 | 36 | 205 | – | not readily biodegradable | – | – | –
COC(=O)c1cccnc1 | 42.5 | 204 | – | – | – | – | –
O=C(NO)c1ccccc1 | 128 | – | – | – | – | – | –
COC(=O)CC(C)C | – | 116 | 1.15 | – | – | – | –
CCc1oc2ccccc2c1C(=O)c1ccc(O)cc1 | 124 | – | – | – | – | – | –
CN(C)c1ccccc1N(C)C | 8.9 | 216 | – | – | – | – | –
CCOc1ccccc1C(N)=O | 133 | – | – | – | – | – | –
CC(=O)O[C@]1(C(C)=O)CC[C@H]2[C@@H]3C=C(Cl)C4=CC(=O)CC[C@]4(C)[C@H]3CC[C@@]21C | 213 | – | – | – | – | – | –
COc1ccc(-c2ccccc2)cc1NNC(=O)OC(C)C | 122 | – | – | – | – | – | –
O=[N+]([O-])c1ccccc1Br | 43 | 258 | – | – | – | – | –
COc1ccc(C(=O)c2ccccc2)cc1 | 61.5 | 355 | – | – | – | – | –
O=C(O)c1ccccc1F | 126 | – | – | – | – | – | –
Clc1ccc(Cl)c(-c2ccccc2)c1 | – | – | -2.86 | – | – | – | -3.55
Oc1ccc(NCc2ccccc2)cc1 | 88 | – | – | – | – | – | –
CCCN(CC1CC1)c1c([N+](=O)[O-])cc(C(F)(F)F)cc1[N+](=O)[O-] | 32.3 | – | -4.2 | – | 4.01 | – | –
CC(C)(C)N(NC(=O)c1ccccc1)C(=O)c1ccccc1I | 188 | – | – | – | – | – | –
CCN1C(=O)OC(C)(C)C1=O | 76.5 | – | – | – | – | – | –
Nc1ccc2c(c1)C(=O)c1ccccc1C2=O | 304 | – | -10.3 | not readily biodegradable | – | – | –
CC(=O)OC1CC(C)OC(C)O1 (stereo not given) | – | – | – | readily biodegradable | – | – | –
C#C[C@]1(OC(C)=O)CC[C@H]2[C@@H]3CCC4=CC(=O)CC[C@@H]4[C@H]3CC[C@@]21C | 162 | – | – | – | – | – | –
CC[C@H](C)[C@@H](C)[C@@H](C)O | – | 166 | – | – | – | – | –

SMILES | melting point [°C] | boiling point [°C] | log10 vapour pressure (mmHg) | ready biodegradability | log10 Koc (L/kg) | log10 Koa | log10 Henry constant (atm·m³/mol)
CCC(=O)OCCC(C)C | – | 160 | – | – | – | – | –
CC(C)(C)C1CCC(O)CC1 (stereo not given) | 66 | – | -1.15 | – | – | – | –
CCCc1cccs1 | – | 158 | – | – | – | – | –
Clc1ccc(Cl)c(-c2cc(Cl)c(Cl)c(Cl)c2Cl)c1 | – | – | – | – | – | – | -4.64
Oc1nc2ccccc2s1 | 139 | 360 | – | – | – | – | –
COc1cc(CO)ccc1O | 115 | – | – | – | – | – | –
COC(=O)C(F)(F)C(F)(F)F | – | 59.5 | – | – | – | – | –
CN(C1CCCCC1)C1CCCCC1 | – | 265 | – | – | – | – | –
C[N+]1(C)CCCCC1 | – | – | – | – | 6 | – | –
Cc1cc2ccccc2[nH]1 | 61 | 272 | – | – | – | – | –
CC=COCC | – | 71.5 | – | – | – | – | –
c1cnc2[nH]ccc2c1 | 106 | – | – | – | – | – | –
Cc1cc(Cl)cc(Cl)c1 | 26 | 202 | – | – | – | – | –
CC(=O)[C@H]1CC[C@H]2[C@@H]3C[C@H](C)C4=CC(=O)CC[C@]4(C)[C@H]3[C@@H](O)C[C@]12C | 156 | – | – | – | – | – | –
CC1(C)N=C(N)N=C(N)N1c1ccc(Cl)cc1 | 146 | – | – | – | – | – | –
O=C1CCCCCCCCC1 | 28 | – | – | – | – | – | –
O=[N+]([O-])c1ccc(-c2ccc([N+](=O)[O-])cc2)cc1 | – | – | -7.56 | – | – | – | –
OC[C@H]1O[C@@H](Oc2ccc(O)cc2)[C@H](O)[C@@H](O)[C@@H]1O | 200 | – | – | – | – | – | –
CCCCCCCCCCC1CCCCC1 | -1.7 | 299 | -2.99 | – | – | – | –
CCOC(CC)OCC | – | 123 | – | – | – | – | –
O=C(O)C1CCC1 | -2 | 190 | – | – | – | – | –
CCOC(=O)N1CCN(C(=O)OCC)CC1 | 47 | 315 | – | – | – | – | –
